Data as given in patent EP0304279B1, “Peptide determinant associated with immunity” (THE BOARD OF TRUSTEES OF THE LELAND STANFORD JUNIOR …, priority 1987, dated 1997).

Experiments:
[1] = system: clone F1-28, a MBP-specific T-cell; experiment: Stimulation of MBP-specific T-cell clone by synthetic peptide (proliferation assay); assay type: cell-based; details: T-cell clone F1-28 recognizing the autoantigen myelin basic protein
Excerpt: The determinant of myelin basic protein (MBP) P5-17 (Zamvil, et al., Nature, supra) contains a pattern P-S-Q-R-H-G-S-K-Y-L-A-T-A. Using the algorithm for the subject motif for predicting T-cell clones the epitope of the clone F1-28, a MBP-specific T-cell was isolated (Zamvil, et al., J. Exp. Med. (1985) 162: 2107), which clone recognizes the autoantigen myelin basic protein. A peptide corresponding to amino acids P35-47 containing two patterns GILD and RFFS was synthesized and shown to be stimulatory.
(§1) Proliferation Assay: Proliferative responses were determined as described previously (Zamvil et al., Nature (1985) 317:355). 1x10^4 T-cells were cultured with 5x10^5 X-irradiated (3,000 rad) PL/J splenic APC in 0.2 ml of culture media in 96 well flat-bottomed microtiter plates (Falcon, 3072). Peptides were added to culture giving the final concentrations indicated. At 48 hours incubation, each well was pulsed with 1 µCi ^3H-thymidine and harvested 16 hours later. The mean c.p.m. thymidine incorporation was calulated for triplicate cultures. Standard deviations from replicate cultures were within 10% mean value.

[2] = system: mouse T-cells; experiment: Proliferation assay (3H-thymidine incorporation) of MHC-restricted T-cells with PL/J splenic APC; assay type: cell-based
Procedure: as §1

[3] = system: clone F1-28, a MBP-specific T-cell; details: Zamvil et al., Nature (1986) 324:258; cited from earlier work

G-I-L-D-S-I-G-R-F-F-S-G-D-R-G-A-P (GILDSIGRFFSGDRGAP) [P35-47, peptide of myelin basic protein containing two patterns GILD and RFFS]
T-cell stimulation [1]: stimulatory
T-cell stimulation ([2]; mouse T-cells restricted by MHC I-E(u)α E(u)β): stimulatory

L-D-S-I-G-R-F-F-S-G-D-R-G-A-P (LDSIGRFFSGDRGAP)
stimulatory epitope defined with overlapping peptides [3]: stimulatory epitope

P89-101: P89-101 of the human myelin basic protein comprising the motif HFFK (PHLIRLFSRDAPG; UniProt P02686 89-101, looked up, fragment)
T-cell stimulation ([2]; mouse T-cells restricted by I-A(s)α A(s)β): stimulatory
